This note sets out measurements from article PMC5585294, “A potent series targeting the malarial cGMP-dependent protein kinase clears infection and blocks transmission” (Nature Communications, 2017).

Data set [1] can be described thus: Cytotoxicity assay using HepG2 cells. The following applies: human. The procedure:
(§1) Compound mlm hlm mLogD PAMPA HepG2 name (%rem) (%rem) (nm/s) (IC50 µM)
(§2) Supplementary Table 2. Compound Properties. MLM, HLM, mLogD and PAMPA . mlm (%rem): % of compound remaining after 30 minutes’ incubation with mouse liver microsomes; hlm (%rem): % of compound remaining after 40 minutes’ incubation with human liver microsomes; mLogD: measured LogD at pH 7.4; PAMPA: parallel artificial membrane permeability assay; HepG2: Cytotoxicity assay using HepG2 cells; n.t.: not tested.

A short description of data set [2]: Stability in human liver microsomes. To be noted: % of compound remaining after 40 minutes' incubation. The procedure: as §1, §2
The nature of data set [3]: Plasma levels in satellite groups of mice, P. berghei experiment. The class given is in vivo, mouse. To be noted: BALB/c, mouse, in vivo; mice, oral 25 mg/kg, P. berghei experiment; read-out: plasma half-life (converted). An excerpt: Supplementary Figure 4. Plasma concentrations over time in rodent malaria models. […] Error bars show the standard deviation. (1 picture or pasted object on this page, not shown here)

Another data set addresses PfPKG (Plasmodium falciparum, UniProt Q8I719). As to the kind of experiment: Microfluidic mobility shift kinase assay, recombinant PfPKG wild type.
Another data set deals with PfPKG T618Q (Plasmodium falciparum, UniProt Q8I719, T618Q). The experiment in a line: Microfluidic mobility shift kinase assay, recombinant PfPKG T618Q gatekeeper mutant.
Data set [4] deals with P. falciparum gatekeeper mutant (T618Q) stage V gametocytes. The experiment in a line: Gametogenesis (rounding up) assay, T618Q stage V gametocytes. The class given is cell-based, Plasmodium falciparum. The following applies: 30 µM xanthurenic acid; 2 µM ML1, 1 µM ML10.
The nature of a further data set: physchem. To be noted: pH 7.4. The procedure:
as §1, §2

A further data set concerns P. falciparum 3D7. As to the kind of experiment: Hypoxanthine incorporation growth inhibition assay, asexual blood stage, wild-type 3D7. The following applies: Plasmodium falciparum, 3D7, 72 h, read-out: EC50 WT. It counts as cell-based, Plasmodium falciparum. The method, then:
Hypoxanthine incorporation assays[36] were performed on P. falciparum asexual blood stage parasites (wild-type 3D7 or T618Q gatekeeper mutant) to determine EC50 values for test compounds. Mixed staged parasites (primarily rings) were added to 96 well plates containing compounds at concentrations of 50 μM–0.3 nM. […] Assays were carried out in triplicate at least twice.

For data set [5], the system named is P. falciparum (NF54) gametocytes. As to the kind of experiment: Standard membrane feeding assay (SMFA), gametocytes fed to Anopheles stephensi. The class given is cell-based, Plasmodium falciparum. The following applies: Plasmodium falciparum, NF54; gametocytes pre-incubated 24 h, oocysts counted day 7 post-feed; read-out: IC50 for reduction of the intensity of infection (oocysts). The procedure:
Mature P. falciparum (NF54) gametocytes (14 day culture, 0.3–0.5% gametocytes, 2% haematocrit) were obtained from an automated tipper system and incubated with compound for 24 h as previously described. Anopheles stephensi (Sind-Kasur Nijmegen strain[39] were reared at 30 °C and 70–80% humidity, while exposed to a 12/12 h day/night cycle. On the day of feeding, the gametocyte culture was adjusted to 50% hematocrit with human red blood cells and human serum and fed to 3–5 day old mosquitoes using a glass membrane mini-feeder system containing 0.35 ml of the P. falciparum culture/compound mix[40]. Unfed and partially fed mosquitoes were removed after feeding and blood fed females were maintained at 26 °C and 70–80% humidity. Up to 20 surviving mosquitoes were collected on day 7 post-infection and oocysts were visualized using a 1% merchurochrome solution and quantified by microscopy. IC50 values were determined by logistic regression using Maximum Likelihood Estimation to find best fit[41].

In data set [6] the test system is P. falciparum wild-type (3D7) stage V gametocytes. As to the kind of experiment: Gametogenesis (rounding up) assay, wild-type 3D7 stage V gametocytes. It counts as cell-based, Plasmodium falciparum. The following applies: 30 µM xanthurenic acid; 2 µM ML1, 1 µM ML10. The procedure: Plasmodium falciparum clone 3D7A (obtained from Dr Lisa Ranford-Cartwright, University of Edinburgh) gametocytes were initiated and cultured using an adapted version of the traditional Trager and Jenson method modified by Fivelman and colleagues. Stage V gametocytes were purified on a 60% Percoll gradient. Purified parasite samples were diluted in warm complete media (RPMI-1640 (Sigma), 0.5% Albumax (Invitrogen), 0.03% L-glutamine (Sigma), 0.2% Glucose (Sigma), 1× hypoxanthine (Sigma)), to a volume that would allow a final volume of […] per sample and a haematocrit of <10%. […] Control tubes containing DMSO only were kept at 37 °C. All other samples were incubated at room temperature for 30 min immediately after addition of test compounds. Samples were then washed once in warm RPMI followed by removal of the supernatant to leave a final haematocrit of roughly 50%. Samples were smeared on glass slides and fixed in 100% methanol (VWR) then stained for 15 min in 10% Giemsa R66 (VWR) and observed by light microscopy. The number of gametocytes at stage V and rounded up per 900 erythrocytes were counted three consecutive times to produce an average count. Numbers of parasites rounded up were compared to the no drug control.

In the next data set the test system is P. chabaudi (AS). As to the kind of experiment: Synchronous P. chabaudi AS model in BALB/c mice. It counts as in vivo, Plasmodium chabaudi. The following applies: single daily oral dose 50 mg/kg just prior to schizogony, 4 days. The method, then:
Similar experiments were performed using P. chabaudi AS (from David Walliker, University of Edinburgh) with the following modifications. To allow dosing to be carried out more conveniently during the day, reversal of the light/dark exposure of mice for 2 weeks prior to the experiment was used to switch schizogony from midnight to noon each day. Mice were dosed at different time points in an attempt to have maximal coverage at the point of schizogony. All animal work protocols carried out at LSHTM were approved and licensed by the United Kingdom Home Office as governed by law under the Animals (Scientific Procedures) Act of 1986, in strict accordance with the Code of Practice Part 1 for the housing and care of animals (21 March 2005), available at http://www.homeoffice.gov.uk/science-research/animal-research/

Data set [7] deals with P. falciparum lab isolate Dd2. The experiment in a line: In vitro selection of resistant parasites. The class given is cell-based, Plasmodium falciparum. The following applies: 3× EC50, 10^9 parasites, up to Day 60. The method, then: P. falciparum lab isolate Dd2 (from stocks held at LSHTM) was used for this experiment and the control compound used was atovaquone. Parasites were plated in triplicate at 10^9 parasites/well and maintained until parasites were observed microscopically (using Giemsa-stained blood films) or until Day 60 whichever was the soonest. […]. Gametocytes were present initially but were absent from Day 11.

Chain of PfPKG T618Q (Q8I719 whole entry T618Q): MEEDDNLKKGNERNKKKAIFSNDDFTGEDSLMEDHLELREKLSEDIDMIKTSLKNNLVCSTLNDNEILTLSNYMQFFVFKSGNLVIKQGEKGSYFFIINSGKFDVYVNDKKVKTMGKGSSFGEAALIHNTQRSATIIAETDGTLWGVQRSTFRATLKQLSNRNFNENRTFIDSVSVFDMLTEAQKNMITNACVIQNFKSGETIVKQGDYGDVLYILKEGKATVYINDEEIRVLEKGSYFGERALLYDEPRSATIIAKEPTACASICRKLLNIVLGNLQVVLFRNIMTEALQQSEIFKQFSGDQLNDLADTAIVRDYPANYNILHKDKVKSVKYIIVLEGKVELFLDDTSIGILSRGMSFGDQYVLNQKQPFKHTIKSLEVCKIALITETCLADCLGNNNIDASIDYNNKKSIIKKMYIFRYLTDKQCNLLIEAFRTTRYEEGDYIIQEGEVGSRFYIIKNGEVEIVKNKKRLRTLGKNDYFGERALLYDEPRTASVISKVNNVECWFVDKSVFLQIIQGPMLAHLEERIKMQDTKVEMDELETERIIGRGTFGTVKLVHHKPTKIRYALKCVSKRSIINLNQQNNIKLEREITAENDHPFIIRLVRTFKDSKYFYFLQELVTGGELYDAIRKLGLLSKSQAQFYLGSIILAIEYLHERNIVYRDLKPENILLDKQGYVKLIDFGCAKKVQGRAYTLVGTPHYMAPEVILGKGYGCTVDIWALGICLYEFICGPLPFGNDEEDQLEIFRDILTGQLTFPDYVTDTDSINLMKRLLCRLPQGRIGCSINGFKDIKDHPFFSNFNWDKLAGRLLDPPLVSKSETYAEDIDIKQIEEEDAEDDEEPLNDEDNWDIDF
Chain of PfPKG (Q8I719 whole entry): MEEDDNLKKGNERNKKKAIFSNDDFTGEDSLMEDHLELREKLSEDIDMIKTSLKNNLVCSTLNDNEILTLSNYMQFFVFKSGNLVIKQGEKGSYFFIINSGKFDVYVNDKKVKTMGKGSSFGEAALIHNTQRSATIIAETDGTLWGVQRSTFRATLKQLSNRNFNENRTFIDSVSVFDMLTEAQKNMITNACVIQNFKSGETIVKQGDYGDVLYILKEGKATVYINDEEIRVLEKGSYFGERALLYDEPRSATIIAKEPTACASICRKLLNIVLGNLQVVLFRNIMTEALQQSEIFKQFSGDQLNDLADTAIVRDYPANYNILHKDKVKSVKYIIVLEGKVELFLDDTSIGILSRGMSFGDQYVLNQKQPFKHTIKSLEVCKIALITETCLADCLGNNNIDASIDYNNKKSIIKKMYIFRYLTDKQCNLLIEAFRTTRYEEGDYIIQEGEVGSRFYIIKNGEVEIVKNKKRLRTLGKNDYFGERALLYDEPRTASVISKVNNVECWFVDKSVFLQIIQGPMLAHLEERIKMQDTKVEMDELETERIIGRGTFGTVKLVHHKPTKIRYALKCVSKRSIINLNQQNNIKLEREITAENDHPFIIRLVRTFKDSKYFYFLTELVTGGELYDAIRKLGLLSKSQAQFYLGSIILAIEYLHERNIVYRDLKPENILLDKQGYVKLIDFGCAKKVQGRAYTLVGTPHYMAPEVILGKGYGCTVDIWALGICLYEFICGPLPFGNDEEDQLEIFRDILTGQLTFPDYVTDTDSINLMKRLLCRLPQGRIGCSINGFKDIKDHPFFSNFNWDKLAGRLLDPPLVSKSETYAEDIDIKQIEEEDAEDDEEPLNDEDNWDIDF
Experimental for PfPKG T618Q: Full length PfPKG (NCBI accession code XP_001348520) with native codon usage was cloned into the pTrcHisC plasmid (Life Technologies) that includes an N-terminal His-tag as described previously[8]. […] Recombinant proteins were generated and purified using a protocol based on that described previously[8]. […] 500 ml cultures in LB Rich Broth (containing 50 μg/ml carbenicillin and 34 μg/ml chloramphenicol) were grown in a shaking incubator at 37 °C until reaching an optical density (O.D.) of 0.6–0.7. The temperature was reduced to 16 °C before induction of expression with 1 mM IPTG. Incubation at 16 °C was continued overnight.
The cultures were harvested by centrifugation at 4000×g at 4 °C for 30 min, the supernatant removed and the pellet stored at −80 °C for in excess of 1 h. The PKGs were purified via the histidine tag on HiTrap TALON (cobalt) columns (GE Healthcare) connected to an AKTA-FPLC as per the manufacturer's instruction. Fractions were analyzed by SDS-PAGE and the main peak concentrated on 10 kDa MWCO concentrators (Amicon). Purified proteins were stored in 50% glycerol at −80 °C in single use aliquots. The final buffer composition of the purified product was: 50 mM Tris/HCl pH 7.5, 0.1 mM EGTA, 150 mM NaCl, 0.1% β-mercaptoethanol, 50% glycerol, 0.03% Brij-35, 1 mM benzamidine and 0.2 mM PMSF.
IC50 values were determined for test compounds using a microfluidic mobility shift assay. Briefly, compounds were prepared over a 10-well ½ log dilution series in dimethyl sulfoxide (DMSO) in duplicate in 50 μl volumes using 384-well polypropylene U-bottomed plates (Thermo Scientific, UK). The plates contained positive/no inhibitor (DMSO only) and negative (no enzyme) controls in columns 1, 2, and 23, 24. […] Samples were pre-incubated at room temperature for 30 min and reactions were initiated by addition of 25 μl ATP mix (10 mM MgCl2 and ATP, at KM of the enzyme under test [20 µM PfPKG and 90 µM PfPKG T618Q], in water). Positive controls were complete reaction mixtures with 10% DMSO and negative controls were reaction mixtures with 10% DMSO but lacking enzyme. Reactions were allowed to proceed for 30 mins at room temperature, corresponding to conversion of approximately 10% of the substrate in the DMSO controls. Reactions were terminated by addition of 50 µl stop solution (25 mM EDTA in water). Samples were analyzed by electrophoretic separation of substrate and product peaks and fluorescence detection using a Caliper Lab Chip EZ reader. (Perkin Elmer, Waltham MA) with 0.2 s sip time, downstream voltage 500 V, upstream voltage 1950 V and pressure 0.5 to 1.5 psi. Substrate and product peak heights were measured and the ratio of the product peak height divided by the sum of the product and substrate peaks were determined using EZ reader software (version 3.0.265.0) to obtain percentage conversion (P) values. […] Liquid handling stages were conducted on a Biomek robotic liquid handler (Beckman Coulter).

For `CN(C)Cc1ccn2c(-c3ccnc(N)n3)c(-c3ccc(F)cc3)nc2c1` [ML1, 4-[7-[(dimethylamino)methyl]-2-(4-fluorophenyl)imidazo[1,2-a]pyridine-3-yl]pyrimidin-2-amine, reference compound], the IC50 was more than 20000 nM in data set [1], 3.1 nM on PfPKG, 8440 nM at PfPKG T618Q and 507 nM in data set [5]. The “hlm (%rem)” value in data set [2] worked out at 70%. Also, the half-life in [3] is 1.1 h. Besides, the “rounding up of T618Q gametocytes” value in [4] is listed as “insensitive”. The mLogD in the data set “physchem” is 2.4. Also, the EC50 in the data set on P. falciparum 3D7 turned out to be 395 nM. In [6], the “rounding up of wild-type gametocytes” value is recorded as “blocked rounding up”. Also, in the data set with P. chabaudi (AS), the “reduction in blood stage parasitaemia” value came out at 67.9%.
For `O=C1C(O)=C([C@H]2CC[C@H](c3ccc(Cl)cc3)CC2)C(=O)c2ccccc21` [atovaquone], the “selection of resistant parasites” value in data set [7] was “readily selected”.

A word on the IC50: it is the concentration needed to halve the response being measured. Broadly, the half-life is how long it takes for the measured level to halve. By EC50 is commonly meant the concentration needed to bring the measured effect to its halfway point.
